“Also recorded” adds a separate entry of the source. Where two headings read alike, the source gives them in different places.
Legend:
[1] = cited from earlier work; for breath AMS and acetone production: after consumption; for time of disappearance from breath: after garlic consumption
[2] = cited from earlier work; for metabolism in blood: disappearing in the process; for Reaction in Blood Half-life: in vitro
[3] = after fresh garlic (e.g. 25 g) or pure allicin (60 mg); cited from earlier work
[4] = in vitro, in the presence of cysteine; cited from earlier work
plaque = assay: Diluted allyl mercaptan poured over the toothbrush bristles (Applicant); format: in vivo; settings: 1/200 in distilled water on toothbrush, a week of use
Description: Because allyl mercaptan and propyl mercaptan are water soluble, it is easier to experiment with them than with diallyl disulfide or dipropyl disulfide (which are an oils).

leukemia cell cultures = settings: co-administered to reduce glutathione; cited from earlier work
13 types of bacteria = settings: cited from earlier work
[5] = system: pro-inflammatory cytokines (e.g. IL-1, TNF-alpha and IL-10); settings: cited from earlier work
[6] = system: cytochrome P-450 enzymes (e.g. CYP2E1) and flavin-containing monooxygenases; settings: cited from earlier work
plaque, mouth sores = assay: Evaluation of the antimicrobial toothpaste by Applicant and evaluators; format: in vivo; settings: as active ingredient of experimental toothpastes
Protocol: I decided to next try mixing it with the toothpaste that I normally use by squeezing out the contents of a tube of Arm and Hammer Dental Care Toothpaste into a bowl, mixing in 10 ml (2 teaspoons) of 1/200 diluted allyl mercaptan, and then returning the toothpaste to the tube. […] Mixing with a conventional toothpaste provides an adequate carrier for the allium related compound. More generally, of course, any orally acceptable carrier suitable for application to the teeth may be used. […] This includes the carriers used in commercially available toothpastes, tooth powders, or other dentifrice products.
The resulting toothpaste has no significant “garlic” smell or taste. It left the mouth feeling very clean, so clean that unwaxed dental floss “squeaks” when slid up and down the side of each tooth.
Several friends and acquaintances were willing to try the toothpaste and provide feedback. Under a “Nondisclosure and Produce Evaluation Agreement” I supplied them with free samples to evaluate. The agreement specified that the samples are not for sale, that the inventive aspects of the samples are confidential, and that the samples have no warranty.
A commercial version of the toothpaste (using onion oil as the active ingredient) is now being manufactured under license by Viola Vitalis corporation of Dhaka, Bangladesh (a company that is partially owned by the applicant).

[7] = system: Cu2^+ induced LDL oxidation; settings: cited from earlier work
NFkB = settings: macrophages, cited from earlier work
[8] = system: total glutathione level of cells; settings: in vitro administration of SAMC; cited from earlier work
acetaminophen poisoning = settings: mice, cited from earlier work
[9] = during the first hour after consumption; cited from earlier work
[10] = cited from earlier work
trypsin enzyme inhibitor = settings: cysteine 2% by weight, soy flour heated at 65 degrees C. for 1 hour; cited from earlier work
nematodes = settings: cited from earlier work
E-coli O157:H7 = settings: cited from earlier work
[11] = without nitrosothiol formation; cited from earlier work
[12] = target: NFkB signal transduction proteins p50 and P65 (Homo sapiens, UniProt P19838+Q04206); settings: measured with a nitric oxide probe; cited from earlier work
glutathione = settings: daily dosage of 1000 mg, multiple myeloma patients; cited from earlier work
liver glutathione level = settings: cited from earlier work

C=CCSSC=CC[S+]([O-])CC=C (mixture of isomers) [ajoene]
breath AMS and acetone production [1]: produce both breath AMS and acetone | metabolism in blood [2]: metabolize directly in blood to allyl mercaptan

C=CCSC [AMS, allyl methyl sulfide]
time of disappearance from breath [1]: ~20 h

C=CCS[S+]([O-])CC=C (centres unmarked) [Allicin, DiAllylThioSulfinate]
Reaction in Blood Half-life [2]: <1 min | time for metabolism to allyl mercaptan ([2]; red blood cells exposed to allicin): less than one minute | detectability in blood, urine, or stool [3]: undetectable | Reaction with Cysteine Half-life [4]: <1 min

C=CCS [AllylSH, AllylThiol]
time of disappearance from breath [1]: ≤ 1 h | plaque (plaque): reduction in plaque | Reaction with Cysteine Half-life [4]: 80 min

CCCCS(=N)(=O)CCC(N)C(=O)O (centres unmarked) [BSO, buthionine sulfoximine]
cytotoxicity of chemotherapeutic arsenicals (leukemia cell cultures): increase the cytotoxicity

O=C(N[C@H](CO)[C@H](O)c1ccc([N+](=O)[O-])cc1)C(Cl)Cl [Chloramphenicol]
average zone of inhibition (13 types of bacteria): 20 mm | species inhibited (13 types of bacteria): 12/13

C=CCSSCC=C [DADS, Diallyl Disulfide]
breath AMS and acetone production [1]: produce both breath AMS and acetone | expression of pro-inflammatory cytokines [5]: inhibit the expression | activity of the enzymes producing allicin from DADS [6]: up to 121 pmol/min/pmol CYP2D6 | conversion of DADS to allicin ([6]; in 30 minutes): approximately 30% | metabolism in blood [2]: metabolize directly in blood to allyl mercaptan | Reaction in Blood Half-life [2]: 60 min | Reaction with Cysteine Half-life [4]: 45 min

C=CCSCC=C [DAS]
breath AMS and acetone production [1]: only produces breath acetone

CCCSSCCC [DPDS, di-n-propyl disulfide]
performance relative to the allyl mercaptan toothpaste (plaque, mouth sores): performed similarly | expression of pro-inflammatory cytokines [5]: inhibit the expression

C=CCSC[C@H](NC(C)=O)C(=O)O [N-acetyl-S-allylcysteine]
effect on Cu2^+ induced LDL oxidation [7]: significantly reduce

N[C@@H](CSN=O)C(=O)O [S-Nitrosocysteine]
donor concentration that nearly completely inhibits the activation of NFkB (NFkB; nitric oxide donor): 1 micro mole

C=CCSC[C@H](N)C(=O)O [S-allylcysteine]
effect on Cu2^+ induced LDL oxidation [7]: significantly reduce | breath AMS and acetone production [1]: produces no breath AMS or acetone

C=CCSSC[C@H](N)C(=O)O [SAMC, S-AllylMercaptoCysteine]
effect on Cu2^+ induced LDL oxidation [7]: significantly reduce | breath AMS and acetone production [1]: produce both breath AMS and acetone | metabolism in blood [2]: metabolize directly in blood to allyl mercaptan | Reaction in Blood Half-life [2]: 3 min | total glutathione level of cells [8]: significantly increase; also recorded: significant increases the total glutathione level | protection from acetaminophen poisoning, pretreatment (acetaminophen poisoning; pretreatment): protect mice from acetaminophen poisoning | protection from acetaminophen, post treatment (acetaminophen poisoning; single dose 200 mg/kg shortly after exposure): protective

[AsH3] [arsenic]
fraction excreted directly from the liver to the bile [9]: ~40%

N[C@@H](CS)C(=O)O [cysteine, Cysteine]
pKa [10]: approximately 8.5 | deactivation of the trypsin enzyme inhibitor (trypsin enzyme inhibitor): over 90%

C=CCSSSCC=C [diallyl trisulfide]
breath AMS and acetone production [1]: produce both breath AMS and acetone | metabolism in blood [2]: metabolize directly in blood to allyl mercaptan

CCCS[S+]([O-])CCC (centres unmarked) [dipropyl thiosulfinate, Dipropyl Thiosulfinate]
nematicidal activity ranking (nematodes): most effective compound found

C=CCS[S+](C)[O-] (centres unmarked) [methyl allyl thiosulfinate]
effectiveness against E-coli O157:H7 (E-coli O157:H7): effective

CS[S+](C)[O-] (centres unmarked) [methyl methane thiosulfinate, Methyl methanethiosulfinate]
effectiveness against E-coli O157:H7 (E-coli O157:H7): effective

[N]=O [nitric oxide]
half life in circulation [11]: about 5 seconds | concentration that inhibited DNA binding activity of p50 and P65 [12]: 20-100 nano mole | concentration that nearly completely inhibits the activation of NFkB (NFkB): less than 1 micro-mole

O=C1O[C@H]([C@@H](O)CO)C(O)=C1O [vitamin C, ascorbic acid]
mean percentage decrease of glutathione (glutathione): 60% | cytotoxicity of chemotherapeutic arsenicals (leukemia cell cultures): increase the cytotoxicity

S-allylcysteine sulfoxide [alliin]
effect on Cu2^+ induced LDL oxidation [7]: significantly reduce

sodium arsenate
liver glutathione level (liver glutathione level; protein deficient (6%) rats, unexposed controls 74): 134 micrograms per gram | liver glutathione level (liver glutathione level; well fed rats (18% protein), unexposed controls 88): 123 micrograms per gram
